The source of these data is patent publication US20210333284A1, “METHODS AND MATERIALS FOR LARGE-SCALE ASSESSMENT OF LIGAND BINDING SELECTIVITY OF G-QUADRUPLEX RECOGNITION USING CUSTOM G4 MICROARRAYS” (Purdue Research Foundation, priority 2020, published 2021).

Assay [1] deals with G4 sequences on custom G4 microarray. Kind of assay: G4 microarray competition of unlabeled molecule with Cy5-PDS. The class given is binding, human. The text has this: Whether the microarray platform could be used to reveal the G4-binding specificity of unlabeled molecules via a competition with Cy5-PDS binding was explored. Three example molecules, unlabeled PDS, TMPyP4 (a planar molecule that nonspecifically binds G4 structures^14), and DC-34 (a molecule that selectively binds the MYC G4^15) were examined. […] The binding of unlabeled DC-34 was examined (FIG. 4). There appear to be no features that are better-bound in the presence of DC-34. […] This is consistent with the observation that DC-34 binds the top and bottom surfaces of the G4 and makes specific contacts with purines in the tail sequences.^15 The general properties of features in which DC-34 reduced binding of Cy5-PDS (ratio of PDS/PDS+DC-34) were also examined.
Microarrays were preincubated with a 100 mM potassium chloride solution for 1 h at RT to induce G4 formation. Protein binding microarray experiments were then performed as previously described.^23 Microarrays were blocked with 4% nonfat dry milk in a potassium phosphate buffer before incubation with proteins or small molecules. Expressed proteins were blocked with 4% nonfat dry milk, ssDNA, and BSA. For the validation experiments, microarrays were also treated with 100 mM lithium chloride to inhibit G4 formation. For experiments examining dsDNA, single-stranded DNA probes were made double-stranded using a primer complementary to a 24-mer constant sequence following the method described previously.^23,24 Double stranding efficiency was monitored using 4% Cy3-dCTP.
Protein or molecule-bound microarrays were scanned with the G5761A SureScan Dx Microarray Scanner System (Agilent) to detect a Cy5 signal at two laser settings (30 and 100 PMT) to ensure signal intensities were below saturation. Spot intensities from microarray images were extracted using the Agilent Feature Extraction Software and are reported as raw fluorescence units. All binding assays were performed at least twice, with high agreement between replicates (R>0.8). Microarrays with the fewest number of saturated spots were used for further analysis. […] The measured array data (Design 3, PDS) and predictions were normalized using the following
Custom G4 microarrays have been designed that contain a total of 19,249 G4 DNA sequences [31, the entirety of disclosure of which, including the supplemental information, is incorporated herein by reference]. […] After washing to remove the unbound Cy5-PDS and BMVC, the fluorescence intensities of Cy5-PDS bound to DNA oligonucleotides were detected using a fluorescence scanner. The binding selectivity of BMVC to different G4 structures was assessed by measuring the relative fluorescence intensity reduction of Cy5-PDS as BMVC concentration increased. […]

In a further assay the test system is human telomeric G4s. Kind of assay: G4 microarray competition with Cy5-PDS, telomeric G4s. The class given is binding. Conditions: 1 μM BMVC and 1 μM Cy5-PDS. The procedure: Custom G4 microarrays have been designed that contain a total of 19,249 G4 DNA sequences [31, the entirety of disclosure of which, including the supplemental information, is incorporated herein by reference]. The G4 microarrays were created by covalently attaching thousands of unique G4-forming DNA 60-mers to a glass surface. Pyridostatin (PDS) is a known G4-interactive compound. […] To test the binding selectivity of BMVC, competition experiments using custom G4 microarrays were performed. The addition of potassium-containing solution to G4-forming oligonucleotides induced G4 formation. […] After washing to remove the unbound Cy5-PDS and BMVC, the fluorescence intensities of Cy5-PDS bound to DNA oligonucleotides were detected using a fluorescence scanner. The binding selectivity of BMVC to different G4 structures was assessed by measuring the relative fluorescence intensity reduction of Cy5-PDS as BMVC concentration increased.
To determine the G4-binding selectivity of BMVC, the BMVC binding to known G4 structures was examined, including 7 well-studied MYC promoter G4 sequences, 15 other oncogene promoter G4 sequences, and 3 human telomeric G4 sequences (TABLE 4). BMVC competes with the binding of Cy5-PDS to most G4 sequences in a dose-dependent manner as indicated by reduced fluorescence intensities (FIG. 8a). […]

The test system of assay [2] is PDGF-A_Pu48, MYB, Bcl-2_P1G4 and Bcl2_55G G4 sequences. Kind of assay: G4 microarray competition with Cy5-PDS, other oncogene promoter G4s. The class given is binding, human. Here is the method: Custom G4 microarrays have been designed that contain a total of 19,249 G4 DNA sequences [31, the entirety of disclosure of which, including the supplemental information, is incorporated herein by reference]. The G4 microarrays were created by covalently attaching thousands of unique G4-forming DNA 60-mers to a glass surface. Pyridostatin (PDS) is a known G4-interactive compound. […] To test the binding selectivity of BMVC, competition experiments using custom G4 microarrays were performed. The addition of potassium-containing solution to G4-forming oligonucleotides induced G4 formation. Subsequently, the microarrays were incubated with 1 μM Cy5-PDS in the absence or presence of 1 μM, 3 μM, or 10 μM of the unlabeled BMVC molecule. After washing to remove the unbound Cy5-PDS and BMVC, the fluorescence intensities of Cy5-PDS bound to DNA oligonucleotides were detected using a fluorescence scanner. The binding selectivity of BMVC to different G4 structures was assessed by measuring the relative fluorescence intensity reduction of Cy5-PDS as BMVC concentration increased.
To determine the G4-binding selectivity of BMVC, the BMVC binding to known G4 structures was examined, including 7 well-studied MYC promoter G4 sequences, 15 other oncogene promoter G4 sequences, and 3 human telomeric G4 sequences (TABLE 4). BMVC competes with the binding of Cy5-PDS to most G4 sequences in a dose-dependent manner as indicated by reduced fluorescence intensities (FIG. 8a).
DNA Microarray Binding Experiments DNA microarray experiments were performed and analyzed as described previously. Microarrays were preincubated with a pH 7.4 phosphate buffer solution with 100 mM potassium for 1 h at room temperature to induce G4 formation. […]
Data Processing and Analysis Molecule-bound microarrays were scanned with an Agilent G5761A SureScan Dx Microarray Scanner System to detect Cy5 signal at two laser settings (30 and 100 PMT). Spot intensities from microarray images were extracted using Agilent Feature Extraction Software and are reported as raw fluorescence intensities. […]

In assay [3] the target is various G4 structures (MYC, VEGF, human telomeric G4s). As to the kind of experiment: Apparent dissociation constant by BMVC fluorescence. Type of assay: binding. The following applies: 20 nM BMVC, 25° C. The procedure: FIG. 11 Apparent dissociation constant (Kd, app) of BMVC binding to various G4 structures determined by BMVC fluorescence. Conditions: 20 nM BMVC, 25° C., pH 7, 100 mM K+ (100 mM Na+ for wtTel22).

A further assay relates to MYC expression. The following applies: human breast cancer cell line; cited from earlier work.

`C[n+]1ccc(/C=C/c2ccc3[nH]c4ccc(/C=C/c5cc[n+](C)cc5)cc4c3c2)cc1.[I-].[I-]` [BMVC, 3,6-Bis(1-methyl-4-vinylpyridinium) carbazole diiodide]: the “binding selectivity profile to different G4 sequences” value in assay [1] (1 μM unlabeled ligand and 1 μM Cy5-PDS) is reported as “more pronounced binding selectivity”. Also, the “reduction of fluorescence intensity of Cy5-PDS” value in assay [1] (most known G4s, 1 μM Cy5-PDS, equimolar (1 μM) BMVC) is given as 50%. In addition, the “inhibition of Cy5-PDS binding to human telomeric G4s” value with human telomeric G4s is “significantly inhibited”. The “binding to Bcl2_55G” value in assay [2] (competition with Cy5-PDS) is on record as “good binding”. In addition, the “binding to Bcl-2_P1G4” value in assay [2] (competition with Cy5-PDS, compared with Bcl2_55G) is “markedly weaker”. Further, in assay [2] (equimolar competition), the “binding to PDGF-A_Pu48 and MYB sequences relative to Cy5-PDS” value is on record as “much weaker”. In assay [3] (pH 7, 100 mM K+), the “apparent dissociation constant (Kd, app), ranking for MYC_14/23T G4” value was “highest affinity”. For the same compound, the “binding to parallel G4s (MYC, VEGF) vs human telomeric G4s by fluorescence” value in assay [3] (pH 7, 100 mM K+ (100 mM Na+ for wtTel22)) is recorded as “stronger than the human telomeric G4s”. Also, the “effect on MYC expression” value in the assay on MYC expression was “represses MYC expression”.
